Seven compounds from ChEMBL document CHEMBL1155283, “Synthesis and anabolic/androgenic evaluation of novel 9alpha-fluorosteroids” (Eur J Med Chem, 2009) can be followed below.

What all share (assay type): functional, organism-based
Experiment [1] concerns Rattus norvegicus. The experiment is described as follows: Androgenic activity in Wistar rat assessed as weight of prostate at 20 mg/kg of corporal weight, sc after 7 days by animal castration method. More on the design: dose 20 mg/kg. The conditions noted are these: Prostate gland.
Experiment [2] has as its system Rattus norvegicus. The experiment in a line: Androgenic activity in Wistar rat assessed as weight of seminal vesicle at 20 mg/kg of corporal weight, sc after 7 days by animal castration method. More on the design: dose 20 mg/kg.
Experiment [3] deals with Rattus norvegicus. The experiment in a line: Androgenic activity in Wistar rat assessed as weight of prostate at 10 mg/kg of corporal weight, sc after 7 days by animal castration method. The settings on record: Prostate gland. More on the design: dose 10 mg/kg.
The subject of experiment [4] is Rattus norvegicus. The experiment is described as follows: Androgenic activity in Wistar rat assessed as weight of seminal vesicle at 10 mg/kg of corporal weight, sc after 7 days by animal castration method. Set-up: dose 10 mg/kg.
Experiment [5] relates to Rattus norvegicus. The experiment in a line: Androgenic activity in Wistar rat assessed as weight of prostate at 40 mg/kg of corporal weight, sc after 7 days by animal castration method. Set-up: dose 40 mg/kg. The settings on record: Prostate gland.
Experiment [6] deals with Rattus norvegicus. The experiment is described as follows: Androgenic activity in Wistar rat assessed as weight of seminal vesicle at 40 mg/kg of corporal weight, sc after 7 days by animal castration method. More on the design: dose 40 mg/kg.
For experiment [7], the system named is Rattus norvegicus. The experiment in a line: Anabolic activity in Wistar rat assessed as weight of levator ani muscle at 40 mg/kg of corporal weight, sc after 7 days by animal castration method. Set-up: dose 40 mg/kg.
Experiment [8] has as its system Rattus norvegicus. The experiment in a line: Anabolic activity in Wistar rat assessed as weight of levator ani muscle at 10 mg/kg of corporal weight, sc after 7 days by animal castration method. Set-up: dose 10 mg/kg.
Experiment [9] deals with Rattus norvegicus. The experiment is described as follows: Anabolic activity in Wistar rat assessed as weight of levator ani muscle at 20 mg/kg of corporal weight, sc after 7 days by animal castration method. Set-up: dose 20 mg/kg.

Active and inactive are the calls of the source. The calls are words filed in the database; no cut-off is given here.

Consider `CCCCCCC(=O)O[C@H]1CC[C@H]2[C@@H]3CC[C@H]4C[C@@H](O)CC[C@]4(C)[C@@]3(F)[C@@H](O)C[C@]12C`, for which the outcome with Rattus norvegicus [1], in the experiment with Rattus norvegicus [2], with Rattus norvegicus [3], in the experiment on Rattus norvegicus [4], with Rattus norvegicus [5] and in the experiment on Rattus norvegicus [6] was inactive.
As to `C[C@]12CC[C@H](O)C[C@@H]1CC[C@H]1[C@@H]3CCC(=O)[C@@]3(C)C[C@H](O)[C@@]12F`, the result in the experiment with Rattus norvegicus [1], with Rattus norvegicus [2], with Rattus norvegicus [3], in the experiment on Rattus norvegicus [4], in the experiment on Rattus norvegicus [5] and with Rattus norvegicus [6] was inactive.
Take `CC(=O)O[C@H]1CC[C@@]2(C)[C@@H](CC[C@H]3[C@@H]4CCC(=O)[C@@]4(C)C[C@H](O)[C@@]32F)C1`: the result in the experiment with Rattus norvegicus [7], in the experiment on Rattus norvegicus [8], in the experiment on Rattus norvegicus [2], in the experiment with Rattus norvegicus [4], in the experiment with Rattus norvegicus [9] and in the experiment on Rattus norvegicus [6] was inactive. Further, the result with Rattus norvegicus [1] and with Rattus norvegicus [5] was Active.
Take `CC(=O)O[C@H]1CC[C@@]2(C)[C@@H](CC[C@H]3[C@@H]4CC[C@H](OC(C)=O)[C@@]4(C)C[C@H](O)[C@@]32F)C1`: the result in the experiment on Rattus norvegicus [1] and in the experiment on Rattus norvegicus [5] was Active.
For the compound `CC(=O)O[C@H]1CC[C@@]2(C)[C@@H](CC[C@H]3[C@@H]4CC[C@H](O)[C@@]4(C)C[C@H](O)[C@@]32F)C1`, the outcome in the experiment with Rattus norvegicus [7] and in the experiment on Rattus norvegicus [9] was Active. Moreover, the result in the experiment on Rattus norvegicus [4] was inactive.
With `CCC(=O)O[C@H]1CC[C@H]2[C@@H]3CC[C@H]4C[C@@H](OC(C)=O)CC[C@]4(C)[C@@]3(F)[C@@H](O)C[C@]12C`, the outcome with Rattus norvegicus [8], with Rattus norvegicus [1], with Rattus norvegicus [3] and in the experiment with Rattus norvegicus [9] was Active.
For `CC(C)C(=O)O[C@H]1CC[C@H]2[C@@H]3CC[C@H]4C[C@@H](O)CC[C@]4(C)[C@@]3(F)[C@@H](O)C[C@]12C`, the result with Rattus norvegicus [1] and in the experiment with Rattus norvegicus [3] was Active. In addition, the result in the experiment on Rattus norvegicus [2], in the experiment with Rattus norvegicus [4] and in the experiment on Rattus norvegicus [6] was inactive.
